Holding throughout (format): cell-based
One assay concerns the target T1, HCN4 (Homo sapiens, UniProt Q9Y3Q4).
T1 construct: expressed in transfected cells
T1 sequence (Q9Y3Q4 1-1203): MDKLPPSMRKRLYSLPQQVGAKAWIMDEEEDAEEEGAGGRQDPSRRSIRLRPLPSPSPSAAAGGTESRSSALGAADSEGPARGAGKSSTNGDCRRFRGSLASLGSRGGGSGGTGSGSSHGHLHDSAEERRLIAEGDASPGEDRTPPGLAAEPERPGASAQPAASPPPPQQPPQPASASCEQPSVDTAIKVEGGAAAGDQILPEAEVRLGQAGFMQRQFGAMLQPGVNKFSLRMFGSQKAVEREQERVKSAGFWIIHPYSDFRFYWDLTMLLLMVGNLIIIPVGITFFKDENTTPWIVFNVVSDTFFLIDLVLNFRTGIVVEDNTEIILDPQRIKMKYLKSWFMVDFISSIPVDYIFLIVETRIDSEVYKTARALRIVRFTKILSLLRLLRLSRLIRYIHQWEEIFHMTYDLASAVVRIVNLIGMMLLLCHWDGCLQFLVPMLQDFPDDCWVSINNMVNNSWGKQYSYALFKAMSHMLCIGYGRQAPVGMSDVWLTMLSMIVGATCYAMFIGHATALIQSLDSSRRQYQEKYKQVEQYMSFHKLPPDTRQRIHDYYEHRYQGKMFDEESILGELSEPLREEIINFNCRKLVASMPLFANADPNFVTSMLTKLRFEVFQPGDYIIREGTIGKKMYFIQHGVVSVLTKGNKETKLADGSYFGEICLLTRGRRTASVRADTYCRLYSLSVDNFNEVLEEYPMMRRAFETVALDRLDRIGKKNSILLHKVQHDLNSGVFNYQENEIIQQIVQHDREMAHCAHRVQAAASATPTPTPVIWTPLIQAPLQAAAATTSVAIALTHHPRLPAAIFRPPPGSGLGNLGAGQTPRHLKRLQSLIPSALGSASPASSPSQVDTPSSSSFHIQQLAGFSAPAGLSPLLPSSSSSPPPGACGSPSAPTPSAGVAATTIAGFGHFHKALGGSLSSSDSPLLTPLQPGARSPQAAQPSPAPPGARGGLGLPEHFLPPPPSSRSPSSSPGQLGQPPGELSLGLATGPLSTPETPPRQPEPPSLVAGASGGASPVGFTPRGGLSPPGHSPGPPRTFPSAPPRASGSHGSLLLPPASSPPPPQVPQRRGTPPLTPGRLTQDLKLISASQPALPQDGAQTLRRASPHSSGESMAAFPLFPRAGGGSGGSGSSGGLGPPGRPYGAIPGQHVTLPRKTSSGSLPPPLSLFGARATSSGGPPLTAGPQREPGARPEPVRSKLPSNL
The assay can be described thus: HCN4 automated patch clamp current inhibition assay (Ionworks Barracuda). As to conditions: HEK-293 cells stably expressing HCN4; current inhibition during a hyperpolarizing pulse of -100 mV. Here is the method: (§1) In vitro, high-throughput cellular electrophysiology was employed to detect voltage- and use-dependence of compounds in single concentration screening and IC50 determination for library and medicinal chemistry profiling compounds in 384 well plates.
(§2) Cell cultures were maintained in DMEM/F12 cell growth media containing FBS and appropriate antibiotics at 37° C., 5% CO2 for a maximum of 20 passages. At a time point of 40-72 hours prior to assay, the expression of HCN protein in the cells is induced by addition of tetracyclin. Cells may be incubated at 27° C. for 2-24 hours of induction. […] Cells were harvested at 80% confluency and resuspended in extracellular buffer and added to wells. A freshly prepared Escin solution was added to intracellular buffer and applied to establish whole cell recording via perforated patch clampling by APC.
(§3) Currents through activated channels were measured directly by APC by employing hyperpolarizing voltage steps. The activation window was increased and stabilized by the addition of cell permeable Br-cAMP. Baselines were established for both use- and voltage-dependence protocols using a −30 mV holding potential and multiple test pulses at −100 mV or by 20 mV steps from −120 to 0 mV, respectively. Test compounds were added after baseline recordings followed by a 10 min incubation, voltage-dependency protocol recording, and use-dependency recording. Data was corrected for baseline and rundown (well based) and normalized for % inhibition (plate based). Five previously reported HCN inhibitors of varying potencies and selectivities and zatebradine were used for run to run and plate to plate quality controls. […] Percent inhibition was analysed at −80, −100, −120 mV of the voltage-dependency protocol and at pulse 0 and 50 of the use-dependency protocols. Selectivity was assessed against HCN2, HCN3, and HCN4 overexpressing cell lines using similar methods. As HCN4 has a slower activation than the other HCN channels, activation was extended to achieve steady state activation.
In general terms: The patch-clamp technique gives a direct electrical read-out from membranes.

In a further assay the target is T2, HCN1 (Homo sapiens, UniProt O60741).
T2 construct: expressed in transfected cells
T2 sequence (O60741 1-890): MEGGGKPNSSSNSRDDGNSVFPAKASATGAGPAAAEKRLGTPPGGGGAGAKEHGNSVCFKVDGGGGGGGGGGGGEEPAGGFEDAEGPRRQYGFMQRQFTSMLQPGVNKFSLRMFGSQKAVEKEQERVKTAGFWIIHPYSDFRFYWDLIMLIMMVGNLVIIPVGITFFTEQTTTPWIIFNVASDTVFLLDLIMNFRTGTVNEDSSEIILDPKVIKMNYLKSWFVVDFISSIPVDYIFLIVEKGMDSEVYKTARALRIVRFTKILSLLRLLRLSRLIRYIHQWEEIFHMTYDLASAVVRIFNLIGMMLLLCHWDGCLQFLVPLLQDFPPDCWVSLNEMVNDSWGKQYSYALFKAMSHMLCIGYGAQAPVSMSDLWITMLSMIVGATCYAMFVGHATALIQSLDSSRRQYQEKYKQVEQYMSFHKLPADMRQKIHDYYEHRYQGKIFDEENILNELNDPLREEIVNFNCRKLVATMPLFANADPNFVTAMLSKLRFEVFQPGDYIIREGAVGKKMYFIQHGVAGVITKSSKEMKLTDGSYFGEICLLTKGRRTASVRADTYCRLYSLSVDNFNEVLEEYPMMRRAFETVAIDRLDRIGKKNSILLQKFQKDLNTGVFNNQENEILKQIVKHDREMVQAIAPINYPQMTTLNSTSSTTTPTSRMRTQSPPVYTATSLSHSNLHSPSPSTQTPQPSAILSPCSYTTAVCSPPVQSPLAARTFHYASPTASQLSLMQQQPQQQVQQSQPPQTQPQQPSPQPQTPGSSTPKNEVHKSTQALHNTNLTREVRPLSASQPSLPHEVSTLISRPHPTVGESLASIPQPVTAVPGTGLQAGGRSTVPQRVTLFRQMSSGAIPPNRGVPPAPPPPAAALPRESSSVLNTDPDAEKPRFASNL
The assay can be described thus: HCN1 automated patch clamp current inhibition assay (Ionworks Barracuda). As to conditions: HEK-293 cells stably expressing HCN1; current inhibition during a hyperpolarizing pulse of -100 mV. The protocol: as §1, §2, §3

The target of the next assay is T3, HCN3 (Homo sapiens, UniProt Q9P1Z3).
T3 construct: expressed in transfected cells
T3 sequence (Q9P1Z3 1-774): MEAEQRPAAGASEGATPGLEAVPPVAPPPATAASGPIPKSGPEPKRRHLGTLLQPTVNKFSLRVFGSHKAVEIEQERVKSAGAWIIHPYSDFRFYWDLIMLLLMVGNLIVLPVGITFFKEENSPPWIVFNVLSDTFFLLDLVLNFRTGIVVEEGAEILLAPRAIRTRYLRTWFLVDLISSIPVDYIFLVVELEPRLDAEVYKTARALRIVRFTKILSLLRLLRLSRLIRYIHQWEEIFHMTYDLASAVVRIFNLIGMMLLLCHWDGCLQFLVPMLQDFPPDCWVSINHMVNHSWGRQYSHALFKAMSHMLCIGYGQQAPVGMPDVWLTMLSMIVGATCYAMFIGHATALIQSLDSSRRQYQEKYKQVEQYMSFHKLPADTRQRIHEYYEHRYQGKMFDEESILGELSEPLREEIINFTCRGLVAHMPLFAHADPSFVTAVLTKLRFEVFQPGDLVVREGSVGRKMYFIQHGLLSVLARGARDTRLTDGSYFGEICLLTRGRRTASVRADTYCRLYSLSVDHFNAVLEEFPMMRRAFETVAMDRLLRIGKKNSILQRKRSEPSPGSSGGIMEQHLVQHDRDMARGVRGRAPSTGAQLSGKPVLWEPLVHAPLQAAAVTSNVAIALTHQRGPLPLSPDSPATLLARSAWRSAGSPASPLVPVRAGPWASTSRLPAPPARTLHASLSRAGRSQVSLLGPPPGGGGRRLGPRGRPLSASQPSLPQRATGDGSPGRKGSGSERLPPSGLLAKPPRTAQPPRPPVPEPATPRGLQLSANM
The assay can be described thus: HCN3 automated patch clamp current inhibition assay (Ionworks Barracuda). As to conditions: HEK-293 cells stably expressing HCN3; current inhibition during a hyperpolarizing pulse of -100 mV. The protocol:
as §1, §2, §3

In the case of `Cc1ccc(-c2c(C(N)=O)nc(C#Cc3cccc(Cl)c3)n2C)cn1` [Example 34, 2-[2-(3-Chlorophenyl)ethynyl]-1-methyl-5-(6-methyl-3-pyridyl)imidazole-4-carboxamide], the IC50 – broadly, the concentration that gives 50% inhibition – against HCN4 was greater than 40 µM; against HCN1 it was 0.099 µM; at HCN3, 4.9 µM.

For the molecule `Cc1ccc(-c2c(C(N)=O)nc(C#Cc3cccc(Cl)c3C)n2C)cn1` [Example 44, 2-[2-(3-Chloro-2-methyl-phenyl)ethynyl]-1-methyl-5-(6-methyl-3-pyridyl)imidazole-4-carboxamide], the IC50 on HCN4 is greater than 40 µM; against HCN1 it was 0.229 µM; at HCN3 it was greater than 40 µM.
